Laboratory results reported in publication PMC3006207, “Phosphorylation-Dependent Protein Interaction with Trypanosoma brucei 14-3-3 Proteins that Display Atypical Target Recognition” (PLoS ONE, 2010).

Experiments:
[1] = system: T. brucei 14-3-3I; assay: Surface plasmon resonance (BIAcore), phosphopeptide vs 14-3-3I; type: binding, Trypanosoma brucei; conditions: 200 nM GST-14-3-3I; peptide 296 RU on SA5 chip; HBS-EP buffer
Method: (§1) The surface plasmon resonance measurement was carried out using BIAcore 2000. A resonance unit value of 220 of biotinylated phosphopeptide pSRaf 259 (biotin-MAGGGRQRSTpSTPN) (mode 1 peptide) was coupled to a streptavidin-coated sensor chip (SA5, BIAcore). In the next step, 200 nM each of purified GST-14-3-3I, GST-14-3-3II, and GST–14-3-3τ, or 500 nM each of MBP-14-3-3I, MBP-14-3-3II, and MBP-14-3-3τ in HBS-EP buffer (BIAcore) was injected at a flow rate of 20 µl/min. A resonance unit value of 296 of biotinylated mode 2 peptide (biotin-MAGGGRLYHpSLP) was also coupled to SA5 and 200 nM each of GST-14-3-3I, GST-14-3-3II and GST-14-3-3τ in HBS-EP buffer, and was injected in the same manner.

[2] = system: T. brucei 14-3-3II; assay: Surface plasmon resonance (BIAcore), phosphopeptide vs 14-3-3II; type: binding, Trypanosoma brucei; conditions: 200 nM GST-14-3-3II; peptide 296 RU on SA5 chip; HBS-EP buffer
Method: as §1

[3] = target: T1, human 14-3-3τ (Homo sapiens, UniProt P27348); assay: Surface plasmon resonance (BIAcore), phosphopeptide vs 14-3-3τ; type: binding; conditions: 200 nM GST-14-3-3τ; peptide 296 RU on SA5 chip; HBS-EP buffer
T1 construct: made in house
T1 sequence (P27348 1-245): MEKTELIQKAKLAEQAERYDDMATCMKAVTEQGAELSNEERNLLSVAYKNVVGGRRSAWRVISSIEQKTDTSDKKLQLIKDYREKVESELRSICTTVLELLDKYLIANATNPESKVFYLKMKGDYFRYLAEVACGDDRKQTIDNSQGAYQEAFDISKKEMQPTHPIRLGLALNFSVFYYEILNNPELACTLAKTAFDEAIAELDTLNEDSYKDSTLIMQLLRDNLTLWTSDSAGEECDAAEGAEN
Method: as §1

[4] = system: heterodimeric T. brucei 14-3-3I+II; assay: NC-filter binding assay, heterodimeric T. brucei 14-3-3; set-up: species or system Trypanosoma brucei; conditions: biotinylated peptide + streptavidine on nitrocellulose filter; GST-14-3-3 detected with α-GST antibodies
Method: (§2) Five µl of 1 mM biotinylated peptides, purchased from Scrum (Japan) were mixed with 15 µl of streptavidine (1 mg/ml) in the presence of 0.1% Tween20, spotted on NC-filters and dried. Filters were washed with TTBS, blocked with Protein-Free Blocking Buffer (Pierce), and then incubated with GST-14-3-3 proteins in TTBS containing 20% Protein-Free Blocking Buffer and 1 mM DTT. The filters were extensively washed four times with TTBS, and detected with anti-GST antibodies.

[5] = system: human 14-3-3ζ; assay: NC-filter binding assay, human 14-3-3ζ
Method: as §2

[6] = system: GST-I K77E +II K56E; assay: NC-filter binding assay, mutant heterodimer; set-up: species or system Trypanosoma brucei
Method: I K77E: 5′-[…]-3′, 5′-[…]-3′; and II K56E: 5′-[…]-3′, 5′-[…]-3′. The sequences were confirmed.
as §2

[7] = system: T. brucei GST-II +I; assay: Far-Western blot of immunoprecipitated V5-tagged proteins, probe GST-II +I; type: binding, Trypanosoma brucei; conditions: protein expressed in HEK293T cells, immunoprecipitated with anti-V5
Source text: (§3) We first examined whether a putative protein phosphatase 2c (PP2c) in the list interacts with T. brucei 14-3-3 proteins, since the phenotype of knockdown of 14-3-3I and/or II resembled that of okadaic acid, a potent serine/threonine phosphatase inhibitor, -treated T. brucei cells and PP2c has a putative mode 3 motif. The N-terminally V5-tagged PP2c protein was expressed in human HEK293T cells and purified by immunoprecipitation using anti-V5 monoclonal antibody (Ab). Far-WB probing with GST-14-3-3 proteins was used to detect the direct interaction. We have recently identified the heterodimeric form as the major form of T. brucei 14-3-3 proteins (unpublished data) and thus, recombinant heterodimeric GST-II +I was used as a probe. […] We further confirmed that the binding was mediated by intact mode 3 motif (Figure 2B).
(§4) Figure 2 Interaction of T. brucei PP2c with T. brucei and human 14-3-3 proteins. (A) and (B) Mammalian expression vectors pCR3 N-V5-PP2c, –PP2c S744A or -C-terminal mutants of PP2c were transiently transfected to HEK293T cells. […] The filters were then incubated with indicated GST-14-3-3 proteins and detected with α-GST antibodies. […]
(§5) Figure 3 p31-SAP binds to T. brucei 14-3-3 proteins in vivo (PCF cells). […] Immunoprecipitated proteins were analyzed by Far-WB with GST-II + I as a probe (upper panel). […]

[8] = system: human GST-14-3-3ζ; assay: Far-Western blot of immunoprecipitated V5-tagged proteins, probe GST-14-3-3ζ; type: binding; conditions: protein expressed in HEK293T cells, immunoprecipitated with anti-V5
Source text: as §3
as §4, with “cells. The cell lysates were subjected to immunoprecipitation with α-V5 Ab followed by far-Western blot analyses (Far-WB) using indicated probes (upper panel). Immunoprecipitated proteins were reprobed with α-V5 Ab (lower panel).” for “cells.”

[9] = system: endogenous 14-3-3I and II; assay: Co-immunoprecipitation with α-V5 Ab in T. brucei PCF cells; type: cell-based, Trypanosoma brucei; conditions: Tet-inducible T. brucei PCF clones; Western blot with mixture of α-I and α-II Ab
Source text: Figure 2 Interaction of T. brucei PP2c with T. brucei and human 14-3-3 proteins. (A) and (B) Mammalian expression vectors pCR3 N-V5-PP2c, –PP2c S744A or -C-terminal mutants of PP2c were transiently transfected to HEK293T cells. The cell lysates were subjected to immunoprecipitation with α-V5 Ab followed by far-Western blot analyses (Far-WB) using indicated probes (upper panel). Immunoprecipitated proteins were reprobed with α-V5 Ab (lower panel). (C) Modes 1-3 phosphopeptides summarized in Table 1 have far less affinity to T. brucei 14-3-3 than human 14-3-3ζ proteins. Indicated biotinylated phosphopeptides were mixed with streptavidine and spotted to nitrocellulose filters and dried. The filters were then incubated with indicated GST-14-3-3 proteins and detected with α-GST antibodies. (D) Tet-inducible T. brucei expression vector, pLew82 T7bsr-N-V5-PP2c was transfected and clones were isolated with blasticidin selection. Tet-uninduced (Tet−) or –induced (Tet +) cell lysates of the clone were subjected to immunoprecipitation followed by Western blotting using a mixture of α-I and II Ab (lower panel), and horseradish peroxidase (HRP)-labeled α-V5 Ab (upper panel).
as §5

What does the source list for “biotin-MAGGGRLYHpSLP [mode 2 phosphopeptide, biotinylated mode 2 peptide (biotin-…pSLP)]”?
binding pattern of the sensorgram, mode 2 [1]: neither GST-14-3-3I nor GST–14-3-3II showed any binding; binding pattern of the sensorgram, mode 2 [2]: neither GST-14-3-3I nor GST–14-3-3II showed any binding; binding pattern of the sensorgram, mode 2 [3]: bound to the mode 2 phosphopeptide

How did the “interaction with spotted phosphopeptide” value [4] turn out when “MGGGHVSGLKRRRpSV [synthetic mode 3 phosphopeptide derived from p31-SAP]” was run?
The value was “clearly detected”.

And the “affinity to p31-SAP derived phosphopeptide, human 14-3-3ζ vs T. brucei 14-3-3” value ([5]; NC-filter, relative to T. brucei 14-3-3)?
Its value is “slightly higher affinity to the p31-SAP derived phosphopeptide than T. brucei 14-3-3”.

What about the “interaction with spotted phosphopeptide” value ([5]; biotinylated peptide + streptavidine on nitrocellulose filter, GST-14-3-3ζ detected with α-GST antibodies) of the same molecule?
Its value is “interacts with both phosphopeptides but with the preferential binding to the mode 3 peptide derived from p31-SAP”.

What about the “binding of mutant 14-3-3 to p31-SAP derived peptide” value [6] of the same molecule?
Its value is “prevent the binding to the p31-SAP derived peptide”.

B1: V5-tagged PP2c: N-terminally V5-tagged putative T. brucei protein phosphatase 2c (Tb927.7.4020) (protein)
chain: MYTSVRKPPLSTAKLSEKTDAAGKGNLNGVAESPTSRDGGIGSSMPYVARKPNSGDGQGRPGEVQRAGQVTYQTTNALFTGSTVPGKTKDVSTAKSSGGGDHLNNGDRPPLVGDNNEVSSPRTIKMNSSPPRRYFHRGAINCNSSENVAAVLGGSTLISGERVGSGSGYPRRVFSGPPSTRMLNQGGEEPAQKPQPPGSSRSKSGIRQLQFALNGNSSQRLLPVPPRQLCPSNPARRGGGAATVTPRCSDARRQKQDSTDPFDMTQVLNGVGTQLGLPSYCPGAESSQGSNRLRGSKPPSPSLLPLASLRSQQMPSTAGVPAPRSLSESQQLSINPSGVFGCATDCKNGLGYDFRVVASTGKSFNLPIKLTAGVGCVQGLRPTMEDEHFIRLQATTAVGQPVSLLGILDGHCGRRVAELAAKHVPDNFIAHPALGENNALAFVESIIQADRAIFHSIGKGSGGVGLSAGFGGSGGSTLIAAAVHGRMLYVACLGDARAVLYDGNTTIPMSEDHKPLNKKEHTRILQCGGFVQLGRVCGVLAVSRALGDYEFKFNGNRFISNRELMVSNVADVRQINLTDSSKFLLLACDGLWDAVQNEEATQFVRDFLSYTPDVGSSPEATKRAINNCCQKLAEFAVSRGSTDNVSVMLLFFHNVADVVASFDRASDATTSRATVTSPVSPRLFSASRGVNAGFTGMESRLAGISGGSSSGAFGGSSGAEGSSVRGAGRTKVDRGASWLTRSRSLW
modifications: left off: V5, N-terminal, kept
B1 was tested. Which “direct binding by Far-WB” value [7] did it give?
The value was “to T. brucei GST-II +I (heterodimerized recombinant proteins) with lower affinity”.

What about the “direct binding by Far-WB” value [8] of the same molecule?
The value was “directly bound to GST-14-3-3ζ with high affinity”.

What about the “co-immunoprecipitation with 14-3-3I and II” value [9] of the same molecule?
Its value is “failed to show the interaction of 14-3-3 with PP2c”.
